According to PMC3973950, “Synthesis of 5-arylidine amino-1,3,4-thiadiazol-2-[(N-substituted benzyol)]sulphonamides endowed with potent antioxidants and anticancer activity induces growth inhibition in HEK293, BT474 and NCI-H226 cells” (Medicinal Chemistry Research, 2013):

How the values were obtained:
[1] = In vitro cytotoxicity by MTT assay, HEK 293; type: cell-based, human; conditions: human, HEK 293 cells, read-out: % cytotoxicity (100 − % cell survival) of HEK 293 cell line
How it was run: (§1)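 Monolayers seeded at […] (about 10,000 per well) were treated after 24 h with the synthesized compounds and incubated three days. Viability was taken from MTT reduction, with formazan measured at 490 nm.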

[2] = test system: HEK 293, M468 and NCI-H226; assay: In vitro cytotoxicity by MTT assay, summary over all cell lines; type: cell-based; conditions: on all cell lines
How it was run: as §1

| SMILES | cytotoxicity at 72 h, 0.005 µM [1] [%] | cytotoxicity at 72 h, 0.015 µM [1] [%] | cytotoxicity at 72 h, 0.045 µM [1] [%] | cytotoxicity at 72 h, 0.13 µM [1] [%] | cytotoxicity at 72 h, 0.41 µM [1] [%] | cytotoxicity at 72 h, 1.23 µM [1] [%] | cytotoxicity at 72 h, 3.7 µM [1] [%] | cytotoxicity at 72 h, 11.11 µM [1] [%] | cytotoxicity at 72 h, 33.33 µM [1] [%] | cytotoxicity at 72 h, 100 µM [1] [%] | cytotoxic activity compared with all synthesized compounds [2] |
| --- | --- | --- | --- | --- | --- | --- | --- | --- | --- | --- | --- |
| O=C(NS(=O)(=O)c1nnc(N=Cc2ccccc2)s1)c1ccccc1 [Compound 9a, N-{[5-(Benzylidenamino)-1,3,4-thiadiazol-2-yl]sulphonyl} benzamide] | 37.4 | 38.2 | 39.8 | 40.7 | 42.4 | 43.1 | 44.2 | 45.6 | 46.2 | 50.6 |  |
| O=C(NS(=O)(=O)c1nnc(N=Cc2ccc(Cl)cc2)s1)c1ccccc1 [Compound 9b, N-({5-[(4-Chlorobenzylidene)amino]-1,3,4-thiadiazol-2-yl}sulfonyl)benzamide] | 33.2 | 34.1 | 34.6 | 36.6 | 37.7 | 38 | 38.2 | 38.6 | 38.9 | 40.7 | more potent |
| COc1ccccc1C=Nc1nnc(S(=O)(=O)NC(=O)c2ccccc2)s1 [Compound 9c, N-({5-[(2-Methoxybenzylidene)amino]-1,3,4-thiadiazol-2-yl}sulfonyl)benzamide] | 36.8 | 38.2 | 40.3 | 42.1 | 42.9 | 43.1 | 44.3 | 45.9 | 47.4 | 52.3 | more potent |
| COc1ccc(C=Nc2nnc(S(=O)(=O)NC(=O)c3ccccc3)s2)cc1 [Compound 9d, N-({5-[(4-Methoxybenzylidene)amino]-1,3,4-thiadiazol-2-yl}sulfonyl)benzamide] | 30.6 | 32.6 | 33.9 | 34.8 | 34.8 | 35.5 | 35.8 | 36.3 | 38.2 | 38.9 |  |
| O=C(NS(=O)(=O)c1nnc(N=Cc2ccc(O)cc2)s1)c1ccccc1 [Compound 9e, N-({5-[(4-Hydroxybenzylidene)amino]-1,3,4-thiadiazol-2-yl}sulfonyl)benzamide] | 25.3 | 26.7 | 26.6 | 28.3 | 29.8 | 30.3 | 31.4 | 34.2 | 37.6 | 39.6 |  |
| O=C(NS(=O)(=O)c1nnc(N=Cc2ccccc2O)s1)c1ccccc1 [Compound 9f, N-({5-[(2-Hydroxybenzylidene)amino]-1,3,4-thiadiazol-2-yl}sulfonyl)benzamide] | 32.5 | 33.1 | 34 | 35.1 | 36.4 | 37.1 | 37.4 | 37.9 | 39.8 | 42.8 |  |
| COc1cc(C=Nc2nnc(S(=O)(=O)NC(=O)c3ccccc3)s2)ccc1O [Compound 9g, N-({5-[(4-Hydroxy-3-methoxybenzylidene)amino]-1,3,4-thiadiazol-2-yl}sulfonyl)benzamide] | 25.4 | 27.6 | 28.5 | 30.3 | 31.1 | 32.1 | 32.8 | 33.5 | 34.1 | 38.6 | less activity |
| CN(C)c1ccc(C=Nc2nnc(S(=O)(=O)NC(=O)c3ccccc3)s2)cc1 [Compound 9h, N-[(5-{[4-(Dimethylamino)benzylidene]amino}-1,3,4-thiadiazol-2-yl)sulfonyl]benzamide] | 32 | 32.9 | 34.5 | 34.8 | 35.1 | 35.7 | 35.7 | 36.2 | 36.9 | 37.6 |  |
